Laboratory results from patent US20250230193A1, “CYCLIC COMPOUND HAVING SELECTIVE KRAS INHIBITORY EFFECT ON HRAS AND NRAS” (CHUGAI SEIYAKU KABUSHIKI KAISHA, priority 2022, published 2025).
Read-outs that look alike come from different tables or passages of the source.

Key:
[1] = system: human lung cancer strain NCI-H441
[2] = target: GDP-bound KRAS wild-type protein (Homo sapiens, UniProt P01116); test: Binding to KRAS by surface plasmon resonance (SPR), Single Cycle Kinetics; conditions: SPR, Single Cycle Kinetics; GDP-bound KRAS wild-type protein
[3] = target: GDP-bound HRAS wild-type protein (Homo sapiens, UniProt P01112); test: Binding to HRAS by surface plasmon resonance (SPR), Single Cycle Kinetics; conditions: SPR; for HRAS/KRAS (ratio of KD value with respect to HRAS to KD value with respect to KRAS): GDP-bound HRAS wild-type vs GDP-bound KRAS wild-type; for HRAS/KRAS (ratio of KD value for GDP-bound HRAS wild-type protein to KD value for KRAS): KD ratio class
GDP-bound HRAS wild-type protein, sequence (P01112 whole entry): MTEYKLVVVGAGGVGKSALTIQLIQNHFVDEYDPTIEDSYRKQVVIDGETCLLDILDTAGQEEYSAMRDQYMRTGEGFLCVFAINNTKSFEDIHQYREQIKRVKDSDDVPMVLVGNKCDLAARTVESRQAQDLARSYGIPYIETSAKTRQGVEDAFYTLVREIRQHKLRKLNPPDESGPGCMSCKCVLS

[4] = target: GDP-bound NRAS wild-type protein (Homo sapiens, UniProt P01111); test: Binding to NRAS by surface plasmon resonance (SPR), Single Cycle Kinetics; conditions: SPR; for NRAS/KRAS (ratio of KD value with respect to NRAS to KD value with respect to KRAS): GDP-bound NRAS wild-type vs GDP-bound KRAS wild-type; for NRAS/KRAS (ratio of KD value for GDP-bound NRAS wild-type protein to KD value for KRAS): KD ratio class
GDP-bound NRAS wild-type protein, sequence (P01111 whole entry): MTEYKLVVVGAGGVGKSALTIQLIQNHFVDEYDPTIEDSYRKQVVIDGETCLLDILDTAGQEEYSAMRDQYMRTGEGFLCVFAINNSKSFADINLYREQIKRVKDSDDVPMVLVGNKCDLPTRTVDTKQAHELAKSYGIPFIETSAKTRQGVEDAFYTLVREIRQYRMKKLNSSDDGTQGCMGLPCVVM

[5] = read-out: NCI-H441 IC50, NCI-H441 cells, 4 days, CellTiter-Glo

Compound	IC50 [1] [nM]	Kd [2] [nM]	IC50 [1, 5] [nM]	HRAS/KRAS (ratio of KD value with respect to HRAS to KD value with respect to KRAS) [3]	NRAS/KRAS (ratio of KD value with respect to NRAS to KD value with respect to KRAS) [4]	HRAS/KRAS (ratio of KD value for GDP-bound HRAS wild-type protein to KD value for KRAS) [3]	NRAS/KRAS (ratio of KD value for GDP-bound NRAS wild-type protein to KD value for KRAS) [4]
CCCCCC[C@H]1C(=O)N[C@@H]([C@@H](C)CC)C(=O)N(C)CC(=O)N(C)[C@H]2C/C=C\CCN(C2=O)[C@@H](Cc2ccc(C(F)(F)F)cc2)C(=O)N(C)CC(=O)N[C@@H](CCc2cc(F)c(C(F)(F)F)c(F)c2)C(=O)N2C[C@H](OCC)C[C@H]2C(=O)NC2(CCC2)C(=O)N(C)[C@@H](C2CCCC2)C(=O)N(C)[C@H](C(=O)N(C)C)CC(=O)N1C [PP1242]		0.076	12.8			A (a compound having 10 or more and less than 20 is denoted as A)	A (a compound having 10 or more and less than 20 is denoted as A)
CCO[C@@H]1C[C@H]2C(=O)NC3(CCC3)C(=O)N(C)[C@@H](C3CCCC3)C(=O)N(C)[C@H](C(=O)N(C)C)CC(=O)N(C)[C@@H](CC(C)C)C(=O)N[C@@H]([C@@H](C)CC)C(=O)N(C)CC(=O)N(C)[C@H]3C/C=C\CCN(C3=O)[C@@H](Cc3ccc(C(F)(F)F)cc3)C(=O)N(C)CC(=O)N[C@@H](CCc3ccc(C(F)(F)F)c(OC)c3)C(=O)N2C1 [PP1245]		0.06	3.7			B (a compound having 3 or more and less than 10 is denoted as B)	A (a compound having 10 or more and less than 20 is denoted as A)
CCCCCC[C@H]1C(=O)N[C@@H]([C@@H](C)CC)C(=O)N(C)CC(=O)N(C)[C@H]2C/C=C\CCN(C2=O)[C@@H](Cc2ccc(C(F)(F)F)cc2)C(=O)N(C)CC(=O)N[C@@H](CCc2ccc(C(F)(F)F)c(OC)c2)C(=O)N2C[C@H](OCC)C[C@H]2C(=O)NC2(CCC2)C(=O)N(C)[C@@H](C2CCCC2)C(=O)N(C)[C@H](C(=O)N(C)C)CC(=O)N1C [PP1246]		0.081	9			A (a compound having 10 or more and less than 20 is denoted as A)	A (a compound having 10 or more and less than 20 is denoted as A)

Second part, led by results:

IC50 [1] [nM]	Kd [2] [nM]	IC50 [1, 5] [nM]	Compound	HRAS/KRAS (ratio of KD value with respect to HRAS to KD value with respect to KRAS) [3]	NRAS/KRAS (ratio of KD value with respect to NRAS to KD value with respect to KRAS) [4]	HRAS/KRAS (ratio of KD value for GDP-bound HRAS wild-type protein to KD value for KRAS) [3]	NRAS/KRAS (ratio of KD value for GDP-bound NRAS wild-type protein to KD value for KRAS) [4]
92	0.79		CCO[C@@H]1C[C@H]2C(=O)NC3(CCC3)C(=O)N(C)[C@@H](C3CCCC3)C(=O)N(CC)[C@H](C(=O)N3CCOCC3)CC(=O)N(C)[C@@H](CC)C(=O)N[C@@H]([C@@H](C)CC)C(=O)N(C)CC(=O)N(C)[C@H]3CCCCCN(C3=O)[C@@H](Cc3ccc(F)cc3)C(=O)N(C)CC(=O)N[C@@H](CCc3cc(F)c(C(F)(F)F)c(F)c3)C(=O)N2C1 [PP0905]	B (a compound having 3 or more and less than 10 is denoted as B)	B (a compound having 3 or more and less than 10 is denoted as B)		
36.9	0.29		CCO[C@@H]1C[C@H]2C(=O)NC3(CCC3)C(=O)N(C)[C@@H](C3CCCC3)C(=O)N(C)[C@H](C(=O)N(C)C)CC(=O)N(C)[C@@H](CC)C(=O)N[C@@H]([C@@H](C)CC)C(=O)N(C)CC(=O)N(C)[C@H]3CCCCCN(C3=O)[C@@H](Cc3ccc(F)cc3F)C(=O)N(C)CC(=O)N[C@@H](CCc3cc(F)c(C(F)(F)F)c(F)c3)C(=O)N2C1 [PP0906]	B (a compound having 3 or more and less than 10 is denoted as B)	B (a compound having 3 or more and less than 10 is denoted as B)		
35.9	0.34		CCO[C@@H]1C[C@H]2C(=O)NC3(CCC3)C(=O)N(C)[C@@H](C3CCCC3)C(=O)N(C)[C@H](C(=O)N3CCOCC3)CC(=O)N(C)[C@@H](CC(C)C)C(=O)N[C@@H]([C@@H](C)CC)C(=O)N(C)CC(=O)N(C)[C@H]3CCCCCN(C3=O)[C@@H](Cc3ccc(F)cc3F)C(=O)N(C)CC(=O)N[C@@H](CCc3cc(F)c(C(F)(F)F)c(F)c3)C(=O)N2C1 [PP0916]	B (a compound having 3 or more and less than 10 is denoted as B)	B (a compound having 3 or more and less than 10 is denoted as B)		
